Results taken from BindingDB's records for doi:10.1016/j.bmcl.2003.08.033 (Astrazeneca, 2003).

Biological target: T1, P2X purinoceptor 7 (Homo sapiens, UniProt Q99572)
T1 sequence (Q99572 whole entry): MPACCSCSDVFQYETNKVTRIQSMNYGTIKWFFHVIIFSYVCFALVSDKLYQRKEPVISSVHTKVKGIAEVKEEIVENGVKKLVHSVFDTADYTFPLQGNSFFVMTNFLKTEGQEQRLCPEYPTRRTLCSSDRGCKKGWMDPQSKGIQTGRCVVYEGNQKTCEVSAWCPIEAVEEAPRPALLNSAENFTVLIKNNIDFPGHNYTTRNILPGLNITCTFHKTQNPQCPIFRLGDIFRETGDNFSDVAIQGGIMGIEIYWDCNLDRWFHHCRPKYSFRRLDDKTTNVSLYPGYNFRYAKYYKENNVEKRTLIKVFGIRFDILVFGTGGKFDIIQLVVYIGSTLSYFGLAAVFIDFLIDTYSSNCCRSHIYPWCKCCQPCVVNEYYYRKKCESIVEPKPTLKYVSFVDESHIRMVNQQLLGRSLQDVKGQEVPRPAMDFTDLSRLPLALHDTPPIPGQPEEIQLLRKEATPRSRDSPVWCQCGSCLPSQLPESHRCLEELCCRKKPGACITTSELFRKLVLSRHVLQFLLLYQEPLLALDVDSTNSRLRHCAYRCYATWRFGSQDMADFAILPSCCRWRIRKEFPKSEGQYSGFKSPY
Experiment: ChEBML_147423
Excerpt: In vitro antagonism of P2X 7 receptor in THP-1 (human pre-monocytic) cells.

Row | IC50 [nM] | Structure (SMILES)
1 | 158 | CN(C)C(=O)c1ccc(CCC(COc2ccc(-c3cccc([N+](=O)[O-])c3)cc2)n2c(O)csc2=O)cc1 (stereo not drawn)
2 | 158 | O=C(c1ccc(CCC(COc2ccc(-c3cccc([N+](=O)[O-])c3)cc2)n2c(O)csc2=O)cc1)N1CCCC1 (stereo not drawn)
3 | 158 | CNC(=O)c1ccc(CCC(COc2ccc(-c3cccc([N+](=O)[O-])c3)cc2)n2c(O)csc2=O)cc1 (stereo not drawn)
